# Source: patent publication US20120196899A1, “METHODS AND PRODUCTS FOR TREATING INFLAMMATION” (Rock Creek Pharmaceuticals, Inc., priority 2010, published 2012)
# Several values for one entry are separate records, joined by “and”; a condition that tells them apart may be missing. Equal entries are not always repeated.
# Columns and labels:
# [1] = Necropsy observations and organ weights, day 15; assay type: in vivo, Sprague-Dawley rats; settings: for Organ Weight Brain / Organ Weight Heart / Organ Weight Kidneys / Organ Weight Liver / Organ Weight Lungs / Organ Weight Ovaries/uterus / Organ Weight Small intestine / Organ Weight Spleen / Organ Weight Thymus: female animals, group mean
# Protocol: Body weight and food consumption was measured daily for 14 days. On day 15, urine was collected on all surviving animals. The animals were euthanized and bled via cardiac puncture, and blood was collected for analysis. Tissues were collected, weighed, evaluated for gross abnormalities, and stored in 10% neutral-buffered formalin.
# (§1) On day 15, urine was collected on all surviving animals for urinalysis. The animals were euthanized and bled via cardiac puncture. Blood was collected for hematology, clinical chemistry, and coagulation analysis. Tissues were collected, weighed, and stored in 10% neutral-buffered formalin for possible future analysis.
# Hematology, day 15 = assay type: in vivo, Sprague-Dawley rats
# Text: as §1
# nAChR α3/β4 = nAChR α3/β4 (Homo sapiens, UniProt P30926+P32297); settings: in presence of 10 μM Ach
# Protocol: HEK293 or CHO cells were transiently or stably transfected with the appropriate human ion channel cDNAs. Stable transfectants were selected by coexpression with the antibiotic-resistance gene(s) incorporated into the expression plasmid(s). Selection pressure was maintained by including selection antibiotics in the culture medium. HEK293 cells were cultured in Dulbecco's Modified Eagle Medium/Nutrient Mixture F-12 (D-MEM/F-12) supplemented with 10% fetal bovine serum, 100 U/mL penicillin G sodium, 100 g/mL streptomycin sulfate and appropriate selection antibiotics. CHO cells were cultured in Ham's F-12 supplemented with 10% fetal bovine serum, 100 U/mL penicillin G sodium, 100 g/mL streptomycin sulfate and appropriate selection antibiotics.
# For FLIPR TETRA™ assay, cells were plated in 384-well black wall, flat clear bottom microtiter plates (Type: BD Biocoat Poly-D-Lysine Multiwell Cell Culture Plate) at 20,000 to 30,000 cells per well (384-well plate). Cells were incubated at 37° C. overnight or until the cells reached a sufficient density in the wells (near confluent monolayer) to use in fluorescence assays. For α4β2 assay, cells were incubated at 27° C. for at least 7 hours before use.
# Experiments were performed with either the FLIPR calcium sensitive dye kit (Fluo-8, ABDbioquest, for nAChR α3/β4 and nAChR α7) or FLIPR membrane potential kit (Molecular Devices, for nAChR α4/β2) according to the manufacturer's instructions. Briefly, cells were incubated with 201 dye for 30 min at 37° C. After dye loading period, for the agonist assay, 5 μl of the test, vehicle, or control articles at concentration of 5 times of final concentration were applied to the cells without stimulation. For the positive allosteric modulation (PAM) and antagonist assay, after test article application, the cells were stimulated with either low dose (for PAM) or high dose (for antagonist) of Ach.
# The signal elicited in the presence of the positive control agonist and allosteric modulator (10 μM Ach+1 μM epibatidine) was set to 100% and the signal from the agonist control (10 μM Ach) was set to 0%.
# [2] = test system: TNFα-induced NFκB activity; assay: NFκB luciferase assay (inhibition of TNFα-induced NFκB activity) in HEK293 reporter cells; assay type: cell-based, Human; settings: HEK293 reporter cells challenged with TNFα for three hours
# Protocol: The smokeless tobacco used in these experiments was plain long-leaf Copenhagen tobacco purchased from a local vendor. Crude extract was extracted with methanol and water and clarified by centrifugation and filtration. The alkaloid extract was prepared from sodium hydroxide and methanol extraction, organic phase separation and purification. All treatment samples were prepared as a function of weight (μg/ml), and all samples were diluted in DMSO.
# Human […] kidney cells (HEK293) transfected with an NFκB luciferase reporter were challenged with TNFα for three hours, then samples were applied to the challenged cells.
# nAChR α7 = target: T1, nAChR α7 (Homo sapiens, UniProt P36544); assay: nAChR α7 channel agonist assay (FLIPR, with PNU-120596); assay type: cell-based; settings: with 10 μM PNU-120596; maximal stimulation not achieved
# T1 construct: host or cells: CHO cells
# Protocol: Therefore, the assay of agonist activity for either Ach or for the test articles was conducted in the presence of the positive allosteric modulator.
# [3] = anatabine 0.75 mg/kg single i.v., male rats
# [4] = anatabine 0.75 mg/kg, individual animals C1-C10 (M, F)
# Sequence of nAChR α3/β4 (P32297 32-505): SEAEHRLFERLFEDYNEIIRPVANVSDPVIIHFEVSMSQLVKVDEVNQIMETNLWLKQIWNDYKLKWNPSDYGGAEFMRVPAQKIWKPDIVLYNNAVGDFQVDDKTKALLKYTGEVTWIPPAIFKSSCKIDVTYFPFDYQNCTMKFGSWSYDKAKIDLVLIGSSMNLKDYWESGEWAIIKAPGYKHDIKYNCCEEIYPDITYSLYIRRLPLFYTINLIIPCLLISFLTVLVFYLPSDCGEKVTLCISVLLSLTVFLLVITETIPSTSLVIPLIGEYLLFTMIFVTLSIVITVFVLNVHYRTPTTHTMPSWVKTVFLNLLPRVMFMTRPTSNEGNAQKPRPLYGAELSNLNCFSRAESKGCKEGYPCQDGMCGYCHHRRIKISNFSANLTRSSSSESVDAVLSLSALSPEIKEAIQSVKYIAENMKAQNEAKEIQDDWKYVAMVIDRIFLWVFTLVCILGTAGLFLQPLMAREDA
# Sequence of nAChR α3/β4 (P30926 22-498): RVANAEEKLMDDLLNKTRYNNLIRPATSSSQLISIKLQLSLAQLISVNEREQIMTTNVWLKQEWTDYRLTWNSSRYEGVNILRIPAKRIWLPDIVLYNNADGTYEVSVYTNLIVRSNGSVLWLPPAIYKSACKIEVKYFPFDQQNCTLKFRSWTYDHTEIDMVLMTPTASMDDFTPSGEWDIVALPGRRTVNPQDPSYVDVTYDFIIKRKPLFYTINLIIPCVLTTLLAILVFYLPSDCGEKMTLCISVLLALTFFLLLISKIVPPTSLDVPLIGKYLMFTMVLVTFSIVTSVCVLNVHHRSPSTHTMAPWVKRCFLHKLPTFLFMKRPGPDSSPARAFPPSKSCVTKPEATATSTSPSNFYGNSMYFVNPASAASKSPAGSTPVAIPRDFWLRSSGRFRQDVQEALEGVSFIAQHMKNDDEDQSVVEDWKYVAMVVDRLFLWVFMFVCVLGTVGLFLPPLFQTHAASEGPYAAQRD
# T1 sequence (P36544 23-502): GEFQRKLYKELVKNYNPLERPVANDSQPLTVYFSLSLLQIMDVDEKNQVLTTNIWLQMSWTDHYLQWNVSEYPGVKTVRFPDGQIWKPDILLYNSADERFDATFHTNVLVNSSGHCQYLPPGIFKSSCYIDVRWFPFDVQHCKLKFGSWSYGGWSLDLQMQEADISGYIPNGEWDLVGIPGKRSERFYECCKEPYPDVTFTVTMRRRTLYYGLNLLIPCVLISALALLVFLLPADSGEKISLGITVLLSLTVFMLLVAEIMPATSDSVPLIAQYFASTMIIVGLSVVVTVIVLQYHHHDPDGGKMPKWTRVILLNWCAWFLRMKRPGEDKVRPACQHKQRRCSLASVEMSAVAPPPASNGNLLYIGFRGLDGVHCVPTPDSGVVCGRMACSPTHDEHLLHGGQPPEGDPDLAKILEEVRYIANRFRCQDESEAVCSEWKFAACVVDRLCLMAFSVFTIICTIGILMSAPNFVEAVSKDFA
smiles,measurement,setting,value
"C1=CCC(c2cccnc2)NC1 (racemic) [Anatabine, 1,2,3,6-tetrahydro-[2,3′]bipyridinyl]","Organ Weight Lungs, Mean",[1]; [3],1.82 g
same,"Organ Weight Prostate, Mean",[1]; [3],0.51 g
same,"Organ Weight Small intestine, Mean",[1]; [3],0.68 g
same,"Organ Weight Spleen, Mean",[1]; [3],0.74 g
same,"Organ Weight Testes, Mean",[1]; [3],3.21 g
same,"Organ Weight Thymus, Mean",[1]; [3],0.67 g
same,Organ Weight Brain,[1]; 0.1 mg/kg,1.86 g
same,Organ Weight Heart,[1]; 0.1 mg/kg,1.13 g
same,Organ Weight Kidneys,[1]; 0.1 mg/kg,2.18 g
same,Organ Weight Liver,[1]; 0.1 mg/kg,10.84 g
same,Organ Weight Lungs,[1]; 0.1 mg/kg,1.41 g
same,Organ Weight Ovaries/uterus,[1]; 0.1 mg/kg,1.14 g
same,Organ Weight Small intestine,[1]; 0.1 mg/kg,0.65 g
same,Organ Weight Spleen,[1]; 0.1 mg/kg,0.65 g
same,Organ Weight Thymus,[1]; 0.1 mg/kg,0.64 g
same,Organ Weight Brain,[1]; 0.75 mg/kg,1.90 g
same,Organ Weight Heart,[1]; 0.75 mg/kg,1.11 g
same,Organ Weight Kidneys,[1]; 0.75 mg/kg,2.30 g
same,Organ Weight Liver,[1]; 0.75 mg/kg,10.42 g
same,Organ Weight Lungs,[1]; 0.75 mg/kg,1.45 g
same,Organ Weight Ovaries/uterus,[1]; 0.75 mg/kg,1.58 g
same,Organ Weight Small intestine,[1]; 0.75 mg/kg,0.75 g
same,Organ Weight Spleen,[1]; 0.75 mg/kg,0.60 g
same,Organ Weight Thymus,[1]; 0.75 mg/kg,0.56 g
same,MCH,"Hematology, day 15; anatabine 0.1 mg/kg, individual animals B1-B10 (M, F)",21.9 UUG and 21.8 UUG
same,MCH,"Hematology, day 15; [4]",20.3 UUG and 21 UUG and 22 UUG and 19.9 UUG
same,MCHC,"Hematology, day 15; [4]",34.2% and 34.3%
same,EOSINOPHIL,"Hematology, day 15; female, 0.1 mg/kg, group mean",0.0%
same,HCT,"Hematology, day 15; female, 0.1 mg/kg, group mean",46.4%
same,LYMPHOCYTE,"Hematology, day 15; female, 0.1 mg/kg, group mean",90.2%
same,MCHC,"Hematology, day 15; female, 0.1 mg/kg, group mean",33.7%
same,MCV,"Hematology, day 15; female, 0.1 mg/kg, group mean",60.0 fL
same,MONOCYTE,"Hematology, day 15; female, 0.1 mg/kg, group mean",1.8%
same,NEUTROPHIL SEG,"Hematology, day 15; female, 0.1 mg/kg, group mean",8.0%
same,PLATELET COUNT,"Hematology, day 15; female, 0.1 mg/kg, group mean",997300 µL⁻¹
same,RBC,"Hematology, day 15; female, 0.1 mg/kg, group mean",7.8e+06 µL⁻¹
same,RETICULOCYTE COUNT,"Hematology, day 15; female, 0.1 mg/kg, group mean",4.5%
same,WBC,"Hematology, day 15; female, 0.1 mg/kg, group mean",9300 µL⁻¹
same,EOSINOPHIL,"Hematology, day 15; female, 0.75 mg/kg, group mean",0.0%
same,HCT,"Hematology, day 15; female, 0.75 mg/kg, group mean",45.2%
same,HGB,"Hematology, day 15; female, 0.75 mg/kg, group mean",15.4 g/dL
same,LYMPHOCYTE,"Hematology, day 15; female, 0.75 mg/kg, group mean",90.6%
same,MCV,"Hematology, day 15; female, 0.75 mg/kg, group mean",59.8 fL
same,MONOCYTE,"Hematology, day 15; female, 0.75 mg/kg, group mean",0.8%
same,NEUTROPHIL SEG,"Hematology, day 15; female, 0.75 mg/kg, group mean",8.6%
same,PLATELET COUNT,"Hematology, day 15; female, 0.75 mg/kg, group mean",1.2696e+06 µL⁻¹
same,RBC,"Hematology, day 15; female, 0.75 mg/kg, group mean",7.5e+06 µL⁻¹
same,RETICULOCYTE COUNT,"Hematology, day 15; female, 0.75 mg/kg, group mean",3.3%
same,WBC,"Hematology, day 15; female, 0.75 mg/kg, group mean",10300 µL⁻¹
same,mean corpuscular volume (MCV) and mean corpuscular hemoglobin (MCH),"Hematology, day 15; females, anatabine […], nicotine 0.75 mg/kg single i.v.","small, but statistically significant decreases"
same,EOSINOPHIL,"Hematology, day 15; male, 0.1 mg/kg, group mean",0.2%
same,HCT,"Hematology, day 15; male, 0.1 mg/kg, group mean",47.1%
same,HGB,"Hematology, day 15; male, 0.1 mg/kg, group mean",15.8 g/dL
same,LYMPHOCYTE,"Hematology, day 15; male, 0.1 mg/kg, group mean",89.2%
same,MCV,"Hematology, day 15; male, 0.1 mg/kg, group mean",63.4 fL
same,MONOCYTE,"Hematology, day 15; male, 0.1 mg/kg, group mean",2.0%
same,NEUTROPHIL SEG,"Hematology, day 15; male, 0.1 mg/kg, group mean",8.6%
same,PLATELET COUNT,"Hematology, day 15; male, 0.1 mg/kg, group mean",1.2486e+06 µL⁻¹
same,RBC,"Hematology, day 15; male, 0.1 mg/kg, group mean",7.4e+06 µL⁻¹
same,RETICULOCYTE COUNT,"Hematology, day 15; male, 0.1 mg/kg, group mean",5.5%
same,WBC,"Hematology, day 15; male, 0.1 mg/kg, group mean",15600 µL⁻¹
same,EOSINOPHIL,"Hematology, day 15; male, 0.75 mg/kg, group mean",0.0%
same,HCT,"Hematology, day 15; male, 0.75 mg/kg, group mean",45.8%
same,LYMPHOCYTE,"Hematology, day 15; male, 0.75 mg/kg, group mean",88.8%
same,MCHC,"Hematology, day 15; male, 0.75 mg/kg, group mean",34.0%
same,MCV,"Hematology, day 15; male, 0.75 mg/kg, group mean",61.4 fL
same,MONOCYTE,"Hematology, day 15; male, 0.75 mg/kg, group mean",1.4%
same,NEUTROPHIL SEG,"Hematology, day 15; male, 0.75 mg/kg, group mean",9.8%
same,PLATELET COUNT,"Hematology, day 15; male, 0.75 mg/kg, group mean",1.3258e+06 µL⁻¹
same,RBC,"Hematology, day 15; male, 0.75 mg/kg, group mean",7.5e+06 µL⁻¹
same,RETICULOCYTE COUNT,"Hematology, day 15; male, 0.75 mg/kg, group mean",4.4%
same,WBC,"Hematology, day 15; male, 0.75 mg/kg, group mean",12100 µL⁻¹
same,potentiation,nAChR α3/β4,Neither nicotine nor anatabine potentiated the activity
same,TNFα-induced NFκB-mediated transcription of luciferase,[2],can reduce this transcription to control levels
same,agonist activity,nAChR α7,showed agonist activity
